pIC50: −log10 of the molar value.
Biological target: T1, MET kinase (Homo sapiens, UniProt P08581)
T1 construct: expressing the kinase domain of human Met; 6x Histidine tag (cleaved yes); made in house; host or cells: Sf9 insect cells
Experiment: MET Luminescence-Based ATP Depletion Enzyme Assay
Format: biochemical
Settings: 10 μM ATP
Experimental: MET Luminescence-Based ATP Depletion Enzyme Assay
Materials: Poly Glu-Tyr (4:1) substrate (Sigma Cat#P-0275), ATP (Sigma Cat#A-3377, FW=551), HEPES buffer, pH 7.5, Bovine serum albumin (BSA) (Roche 92423420), MgCl2, Staurosporine (Streptomyces sp. Sigma Cat#85660-1MG), white Costar 384-well flat-bottom plate (VWR Cat#29444-088). MET kinase (see below), Kinase-Glo™ (Promega Cat#V6712).
Stock Solutions: 10 mg/ml poly Glu-Tyr in water, stored at −20° C.; 100 mM HEPES buffer, pH 7.5 (5 ml 1M stock+45 ml miliQH2O); 10 mM ATP (5.51 mg/ml in dH2O) stored at −20° C. (diluted 50 μl into total of 10 ml miliQH2O daily=50 μM ATP working stock); 1% BSA (1 g BSA in 100 ml 0.1M HEPES, pH 7.5, stored at −20° C.), 100 mM MgCl2; 200 μM Staurosporine, 2× Kinase-Glo™ reagent (made fresh or stored at −20° C.).
Standard Assay Setup for 384-well format (20 μl kinase reaction, 40 μl detection reaction): 10 mM MgCl2; 0.3 mg/ml poly Glu-Tyr; 0.1% BSA; 1 μl test compound (in DMSO); 0.4 μg/ml MET kinase; 10 μM ATP; 100 mM HEPES buffer. Positive controls contained DMSO with no test compound. Negative controls contained 10 μM staurosporine. The kinase reactions were initiated at time t=0 by the addition of ATP. Kinase reactions were incubated at 21° C. for 60 min, then 20 μl of Kinase-Glo™ reagent were added to each well to quench the kinase reaction and initiate the luminescence reaction. After a 20 min incubation at 21° C., the luminescence was detected in a plate-reading luminometer.
The cell pellets produced from half of a 12 L Sf9 insect cell culture expressing the kinase domain of human Met were resuspended in a buffer containing 50 mM Tris-HCl pH 7.7 and 250 mM NaCl, in a volume of approximately 40 ml per 1 L of original culture. One tablet of Roche Complete, EDTA-free protease inhibitor cocktail (Cat#1873580) was added per 1 L of original culture. The suspension was stirred for 1 hour at 4° C. Debris was removed by centrifugation for 30 minutes at 39,800×g at 4° C. The supernatant was decanted into a 500 ml beaker and 10 ml of 50% slurry of Qiagen Ni-NTA Agarose (Cat#30250) that had been pre-equilibrated in 50 mM Tris-HCl pH 7.8, 50 mM NaCl, 10% Glycerol, 10 mM Imidazole, and 10 mM Methionine, were added and stirred for 30 minutes at 4° C. The sample was then poured into a drip column at 4° C. and washed with 10 column volumes of 50 mM Tris-HCl pH 7.8, 500 mM NaCl, 10% Glycerol, 10 mM Imidazole, and 10 mM Methionine. The protein was eluted using a step gradient with two column volumes each of the same buffer containing 50 mM, 200 mM, and 500 mM Imidazole, sequentially. The 6× Histidine tag was cleaved overnight using 40 units of TEV protease (Invitrogen Cat#10127017) per 1 mg of protein while dialyzing in 50 mM Tris-HCl pH 7.8, 500 mM NaCl, 10% Glycerol, 10 mM Imidazole, and 10 mM Methionine at 4° C. The 6× Histidine tag was removed by passing the sample over a Pharmacia 5 ml IMAC column (Cat#17-0409-01) charged with Nickel and equilibrated in 50 mM Tris-HCl pH 7.8, 500 mM NaCl, 10% Glycerol, 10 mM Imidazole, and 10 mM Methionine. The cleaved protein bound to the Nickel column at a low affinity and was eluted with a step gradient. The step gradient was run with 15% and then 80% of the B-side (A-side=50 mM Tris-HCl pH 7.8, 500 mM NaCl, 10% Glycerol, 10 mM Imidazole, and 10 mM Methionine; B-side=50 mM Tris-HCl pH 7.8, 500 mM NaCl, 10% Glycerol, 500 mM Imidazole, and 10 mM Methionine) for 4 column volumes each. The Met protein eluted in the first step (15%), whereas the non-cleaved Met and the cleaved Histidine tag eluted in the 80% fractions. The 15% fractions were pooled after SDS-PAGE gel analysis confirmed the presence of cleaved Met; further purification was done by gel filtration chromatography on an Amersham Biosciences HiLoad 16/60 Superdex 200 prep grade (Cat#17-1069-01) equilibrated in 50 mM Tris-HCl pH 8.5, 150 mM NaCl, 10% Glycerol and 5 mM DTT. […]

T1 sequence (P08581 1078-1345 limits assumed): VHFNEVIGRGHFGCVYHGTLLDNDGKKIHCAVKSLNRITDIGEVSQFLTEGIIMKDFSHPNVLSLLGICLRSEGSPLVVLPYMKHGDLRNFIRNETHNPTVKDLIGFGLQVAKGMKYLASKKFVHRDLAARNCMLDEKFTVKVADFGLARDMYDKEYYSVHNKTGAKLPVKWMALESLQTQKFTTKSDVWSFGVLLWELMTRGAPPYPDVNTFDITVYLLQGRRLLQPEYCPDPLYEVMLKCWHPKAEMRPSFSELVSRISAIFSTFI

SMILES	pIC50
CN(C)C(=O)c1cccc(Nc2nccc(-c3ccc(Br)s3)n2)c1	5.30 to 6.00
CC(O)c1cccc(Nc2nccc(-c3ccc(S(=O)(=O)N(C)C)s3)n2)c1 (stereo not shown)	5.30 to 6.00
CC(O)c1cccc(Nc2nccc(-c3ccc(-c4cccnc4)s3)n2)c1 (stereo not shown)	5.30 to 6.00
Brc1ccc(-c2ccnc(Nc3cccc(CN4CCOCC4)c3)n2)s1	5.30 to 6.00
OC1CCN(Cc2cccc(Nc3nccc(-c4ccc(CNc5ccccc5Cl)s4)n3)c2)CC1	5.30 to 6.00
O=C(c1cccc(Nc2nccc(-c3ccc(Br)s3)n2)c1)N1CCN(CCO)CC1	5.30 to 6.00
O=C(NCc1ccccc1)c1ccc(-c2ccnc(Nc3ccc(CCO)cc3)n2)s1	5.30 to 6.00
COc1ccc(Nc2nccc(-c3ccc(Br)s3)n2)cc1OC	5.30 to 6.00

The next lines start with the values.

pIC50	SMILES
5.30 to 6.00	COc1ccc(Nc2nccc(-c3ccc(Br)s3)n2)cc1C(=O)N(C)C
5.30 to 6.00	CCC(=O)Nc1ccc(-c2ccnc(Nc3cccc(C)c3)n2)s1
> 6.00	CCC1CCCCN1S(=O)(=O)c1ccc(-c2ccnc(Nc3cccc(C(C)O)c3)n2)s1 (stereo not shown)
> 6.00	CCN(CCC#N)S(=O)(=O)c1ccc(-c2ccnc(Nc3cccc(C(C)O)c3)n2)s1 (stereo not shown)
> 6.00	C[C@@H](NC(=O)c1ccc(-c2ccnc(Nc3cccc(CN4CCN(CCO)CC4)c3)n2)s1)c1ccccc1
> 6.00	CCN(CCC#N)S(=O)(=O)c1ccc(-c2ccnc(Nc3cccc(C)c3)n2)s1
> 6.00	CC(O)c1cccc(Nc2nccc(-c3ccc(S(=O)(=O)Cc4ccccc4)s3)n2)c1 (stereo not shown)
> 6.00	C[C@@H](NC(=O)c1ccc(-c2ccnc(Nc3cccc(CN4CCC(O)CC4)c3)n2)s1)c1ccccc1
